Assay results published in US12077503B2, “Substituted cyclic amides and their use as herbicides” (FMC CORPORATION, priority 2015, dated 2024).

Tests used:
Type in all cases: in vivo
Kochia (Kochia scoparia) [1] = assay: Test A preemergence; conditions: Bassia scoparia, pre-emergence, 240 h, Preemergence
In short: (§1)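 Greenhouse, ~10 d after spray; visual injury vs untreated controls, 0 = no effect, 100 = complete control. Preemergence: directed soil spray over planted seeds. Postemergence: plants 2–10 cm, 1–2 leaf stage. Loam/sand blend. Compound in non-phytotoxic solvent with surfactant.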

[2] = test system: barnyardgrass (Echinochloa crus-galli); assay: Test A preemergence; conditions: Echinochloa crus-galli, pre-emergence, 240 h, Preemergence
In short: as §1

[3] = test system: giant foxtail (Setaria faberii); assay: Test A preemergence; conditions: Setaria faberi, pre-emergence, 240 h, Preemergence
In short: as §1

[4] = test system: pigweed (Amaranthus retroflexus); assay: Test A preemergence; conditions: Amaranthus retroflexus, pre-emergence, 240 h, Preemergence
[5] = test system: ragweed (common ragweed, Ambrosia elatior); assay: Test A preemergence; conditions: Ambrosia artemisiifolia, pre-emergence, 240 h, Preemergence
In short: as §1

[6] = test system: ryegrass, Italian (Italian ryegrass, Lolium multiflorum); assay: Test A preemergence; conditions: Lolium multiflorum, pre-emergence, 240 h, Preemergence
In short: as §1

[7] = test system: Galium (catchweed bedstraw, Galium aparine); assay: Test A postemergence; conditions: Galium, post-emergence, 240 h, Postemergence, read-out: Plant response rating, Galium
In short: as §1

Kochia (Kochia scoparia) [8] = assay: Test A postemergence; conditions: Bassia scoparia, post-emergence, 240 h, Postemergence, read-out: Plant response rating, Kochia
In short: as §1

[9] = test system: barnyardgrass (Echinochloa crus-galli); assay: Test A postemergence; conditions: Echinochloa crus-galli, post-emergence, 240 h, Postemergence, read-out: Plant response rating, Barnyardgrass
In short: as §1

[10] = test system: blackgrass (Alopecurus myosuroides); assay: Test A postemergence; conditions: Alopecurus myosuroides, post-emergence, 240 h, Postemergence, read-out: Plant response rating, Blackgrass
In short: as §1

corn (Zea mays) = assay: Test A postemergence; conditions: Zea mays, post-emergence, 240 h, Postemergence
In short: as §1

[11] = test system: giant foxtail (Setaria faberii); assay: Test A postemergence; conditions: Setaria faberi, post-emergence, 240 h, Postemergence, read-out: Plant response rating, Foxtail, Giant
In short: as §1

[12] = test system: pigweed (Amaranthus retroflexus); assay: Test A postemergence; conditions: Amaranthus retroflexus, post-emergence, 240 h, Postemergence, read-out: Plant response rating, Pigweed
In short: as §1

[13] = test system: ragweed (common ragweed, Ambrosia elatior); assay: Test A postemergence; conditions: Ambrosia artemisiifolia, post-emergence, 240 h, Postemergence, read-out: Plant response rating, Ragweed
In short: as §1

[14] = test system: ryegrass, Italian (Italian ryegrass, Lolium multiflorum); assay: Test A postemergence; conditions: Lolium multiflorum, post-emergence, 240 h, Postemergence, read-out: Plant response rating, Ryegrass, Italian
In short: as §1

[15] = test system: wheat (Triticum aestivum); assay: Test A postemergence; conditions: Triticum aestivum, post-emergence, 240 h, Postemergence, read-out: Plant response rating, Wheat
In short: as §1

[16] = test system: barnyardgrass (Echinochloa crus-galli); assay: Test B flooded paddy test; conditions: Echinochloa crus-galli, 250 g ai/ha, Flood; 0 to 100 scale where 0 is no effect and 100 is complete control; read-out: Barnyardgrass plant response rating
In short: (§2)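 2-leaf plants; pots flooded 3 cm over soil; cpd added to paddy water; depth held; greenhouse 13–15 d; visual rating vs controls, 0 = no effect, 100 = complete control.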

[17] = test system: ducksalad (Heteranthera limosa); assay: Test B flooded paddy test; conditions: Heteranthera limosa, 250 g ai/ha, Flood; 0 to 100 scale where 0 is no effect and 100 is complete control; read-out: Ducksalad plant response rating
In short: as §2

rice (Oryra sativa) = assay: Test B flooded paddy test; conditions: Oryza sativa, 250 g ai/ha, Flood; 0 to 100 scale where 0 is no effect and 100 is complete control; read-out: Rice plant response rating
In short: as §2

[18] = test system: sedge, umbrella (small-flower umbrella sedge, Cyperus difformis); assay: Test B flooded paddy test; conditions: Cyperus difformis, 250 g ai/ha, Flood; 0 to 100 scale where 0 is no effect and 100 is complete control; read-out: Sedge, Umbrella plant response rating
In short: as §2

[19] = 125 g ai/ha, visual injury after approximately 10 d, 0 to 100 scale where 0 is no effect and 100 is complete control
[20] = 31 g ai/ha, visual injury after approx. 10 d, 0 to 100 scale, 0 no effect, 100 complete control

CC(C)=CC1CNC(=O)C1C(=O)Nc1ccccc1F (stereo not drawn) [Compound 1011]
0%: pest or weed control at 31 g/ha (Kochia (Kochia scoparia) [1]; 31 g ai/ha, 0 to 100 scale where 0 is no effect and 100 is complete control, read-out: Kochia plant response rating) | pest or weed control at 125 g/ha (Kochia (Kochia scoparia) [1]; 125 g ai/ha, visual injury rating after approximately 10 d, read-out: Kochia plant response rating (0 to 100 scale, 0 is no effect, 100 is complete control)) | pest or weed control at 125 g/ha ([2]; 125 g ai/ha, visual injury rating after approximately 10 d, read-out: Barnyardgrass plant response rating (0 to 100 scale, 0 is no effect, 100 is complete control)) | pest or weed control at 31 g/ha ([2]; 31 g ai/ha, 0 to 100 scale (0 no effect, 100 complete control), read-out: Plant response rating, Barnyardgrass) | pest or weed control at 125 g/ha ([3]; 125 g ai/ha, visual injury rating after approximately 10 d, read-out: Foxtail, Giant plant response rating (0 to 100 scale, 0 is no effect, 100 is complete control)) | pest or weed control at 31 g/ha ([3]; 31 g ai/ha, 0 to 100 scale (0 no effect, 100 complete control), read-out: Plant response rating, Foxtail, Giant) | pest or weed control at 31 g/ha ([4]; 31 g ai/ha, 0 to 100 scale where 0 is no effect and 100 is complete control, read-out: Pigweed plant response rating) | pest or weed control at 125 g/ha ([4]; 125 g ai/ha, visual injury rating after approximately 10 d, read-out: Pigweed plant response rating (0 to 100 scale, 0 is no effect, 100 is complete control)) | pest or weed control at 31 g/ha ([5]; 31 g ai/ha, 0 to 100 scale where 0 is no effect and 100 is complete control, read-out: Ragweed plant response rating) | pest or weed control at 125 g/ha ([5]; 125 g ai/ha, visual injury rating after approximately 10 d, read-out: Ragweed plant response rating (0 to 100 scale, 0 is no effect, 100 is complete control)) | pest or weed control at 31 g/ha ([6]; 31 g ai/ha, 0 to 100 scale where 0 is no effect and 100 is complete control, read-out: Ryegrass, Italian plant response rating) | pest or weed control at 125 g/ha ([6]; 125 g ai/ha, visual injury rating after approximately 10 d, read-out: Ryegrass, Italian plant response rating (0 to 100 scale, 0 is no effect, 100 is complete control)) | pest or weed control at 125 g/ha [7, 19] | pest or weed control at 31 g/ha [7, 20] | pest or weed control at 125 g/ha (Kochia (Kochia scoparia) [8]; [19]) | pest or weed control at 31 g/ha (Kochia (Kochia scoparia) [8]; [20]) | pest or weed control at 125 g/ha [9, 19] | pest or weed control at 31 g/ha [9, 20] | pest or weed control at 125 g/ha [10, 19] | pest or weed control at 31 g/ha [10, 20] | Corn plant response rating (crop injury, 0 = no effect, 100 = complete kill) at 125 g/ha (corn (Zea mays); [19]) | Corn plant response rating (crop injury, 0 = no effect, 100 = complete kill) at 31 g/ha (corn (Zea mays); [20]) | pest or weed control at 125 g/ha [11, 19] | pest or weed control at 31 g/ha [11, 20] | pest or weed control at 125 g/ha [12, 19] | pest or weed control at 31 g/ha [12, 20] | pest or weed control at 125 g/ha [13, 19] | pest or weed control at 31 g/ha [13, 20] | pest or weed control at 125 g/ha [14, 19] | pest or weed control at 31 g/ha [14, 20] | plant injury at 125 g/ha [15, 19] | plant injury at 31 g/ha [15, 20] | pest or weed control at 250 g/ha [16] | pest or weed control at 250 g/ha [17] | pest or weed control at 250 g/ha (rice (Oryra sativa)) | pest or weed control at 250 g/ha [18]
